According to US12714715B2, “Agent for treating myopia, preventing myopia and/or suppressing myopia progression” (SANTEN PHARMACEUTICAL CO., LTD., priority 2020, dated 2026):

System: guinea pigs
Assay: Evaluation of mydriatic action (pupil diameter, pupillary light reflex) after repeated topical administration to one eye
Assay type: in vivo, guinea pig
Details: Comparative Example 3; for Pupil diameter before administration / Decreased pupillary light reflex / Maximum pupil diameter / Measurement time of maximum pupil diameter: 10 μL topical to left eye once daily 5 days; for Pupil diameter before administration: before administration on day 5, average of 3 guinea pigs; for Decreased pupillary light reflex / Measurement time of maximum pupil diameter: day 5; for Maximum pupil diameter: longest average diameter among measurement times on day 5
Description: An atropine solution was repeatedly topically administered to one eye of a guinea pig to evaluate the effect of the solution on mydriasis.
Atropine sulfate hydrate and glycerin were dissolved in water for injection to prepare 0.001%, 0.0003% and 0.0001% atropine solutions without adjusting the pH.
Each of the prepared solutions was topically administered to the left eye of guinea pigs (the left eyes of 3 guinea pigs for each solution) in a volume of 10 μL once daily for 5 days. The pupil diameter of each guinea pig was measured before the administration on day 5 as well as 1, 2 and 4 hours after the administration to observe the pupillary light reflex. The measured pupil diameters of each guinea pig at each measurement time were averaged to obtain the average value. The obtained average value was defined as the average pupil diameter. Among each average pupil diameter at each measurement time, the longest diameter was defined as the maximum pupil diameter.

## CN1[C@@H]2CC[C@H]1CC(OC(=O)C(CO)c1ccccc1)C2.CN1[C@@H]2CC[C@H]1CC(OC(=O)C(CO)c1ccccc1)C2.O.O=S(=O)(O)O (stereo partly drawn) [atropine, Atropine sulfate hydrate]
0.0001% solution
  Pupil diameter before administration: 2.3 mm
  Decreased pupillary light reflex: 0/3
  Maximum pupil diameter: 2.8 mm
0.0003% solution
  Pupil diameter before administration: 3.0 mm
  Decreased pupillary light reflex: 1/3
  Measurement time of maximum pupil diameter: 1 h
  Maximum pupil diameter: 3.8 mm
0.001% and 0.0003% atropine solution administration groups
  Mydriatic action (pupil diameter and pupillary light reflex, in words): the increased pupil diameter and the decreased pupillary light reflex were found
0.001% solution
  Pupil diameter before administration: 2.6 mm
  Decreased pupillary light reflex: 3/3
  Measurement time of maximum pupil diameter: 1 h
  Maximum pupil diameter: 4.9 mm
